Test results published in patent US11602514B2, “Medicament having anti-inflammatory bowel disease function, and preparation method therefor and application thereof” (SUZHOU PHARMAVAN CO., LTD, priority 2018, dated 2023).
Entries after “also recorded” stand apart in the source; their conditions may differ.

Tests used:
[1] = test system: IL-6 secreted by mouse macrophages RAW264.7 induced by LPS; assay: IL-6 secreted by LPS-induced RAW264.7 macrophages (ELISA); format: cell-based; conditions: LPS 100 ng/mL, 24 h; FIG. 5
Protocol: (§1) Effects of myricanol derivatives on the expression of inflammatory factors such as IL-6, TNF-α, PEG2 secreted by a mouse macrophage cell strain RAW 264.7 induced by bacterial lipopolysaccharide (hereinafter referred to as LPS) stimulus: A pre-prepared cell suspension was inoculated in a 96-well plate at 15000 cells/well and 100 μl/well and cultured overnight in an incubator with 5% CO2 at 37° C. At 80% cell confluence, the original culture medium was discarded, and each well was added with 100 μl of prepared drug solution to be tested with a different concentration, cultured for 1 h, and then added with a LPS solution, where the final concentration of LPS in the culture system was 100 ng/mL. Each concentration was set with 3 parallel wells, and a cell control group (no drug and no solvent) and a blank medium control group (no cells, a well for zero adjustment) were set. They were cultured for another 24 h. Cell culture supernatants were aspirated, and an R&D ELISA detection kit (M6000B; MTA00B; VAL601) was used for detecting the expression of the inflammatory factors such as IL-6, TNF-α, and PEG2 in each group. Cell proteins were collected, and a […] method was used for detecting COX-2 protein expression in each group.

[2] = test system: mouse macrophages RAW264.7; assay: effect on proliferation activity of mouse macrophages RAW264.7; format: cell-based; conditions: n=3, FIG. 4
[3] = test system: PGE2 secreted by mouse macrophages RAW264.7 induced by LPS; assay: PGE2 secreted by LPS-induced RAW264.7 macrophages (ELISA); format: cell-based; conditions: for inhibition of PGE2 secreted by RAW264.7 induced by LPS: LPS 100 ng/mL, 24 h, FIGS. 7 and 9
Protocol: as §1

[4] = test system: COX2 protein expressed by mouse macrophages RAW264.7; assay: COX2 protein expression in LPS-induced RAW264.7 macrophages (blot); format: cell-based; conditions: FIG. 8
Protocol: as §1

[5] = test system: SD rats; assay: acute toxicity, single oral dose; format: in vivo; conditions: single intragastric administration, 14 days observation
Text: Trial method: 30 SD rats, half male and half female, were used. The average weight was 160-200 g for female rats and 180-220 g for male rats when grouped. An individual weight should be within ±20% of the average weight. Before the test, animals needed to accommodate to the environment for at least 5 days, and healthy rats (female rats should be not pregnant) were selected as test animals. Matter detected during the accommodation period mainly was: whether the rats were consistent with quality indexes required in the order; detection of general conditions; and whether the weight was within the weight range required by the test. Unqualified abnormal animals were excluded from the test. A single dosage was orally administered to rats at a low, medium, or high dose. […] A control group was set with the oral administration of the same volume of solvent.
The rats were observed about 0-2 h and 4-6 h after each administration. If a toxicity symptom occurs, the rats may be observed more times. (2) Gross anatomical observation: on the 14th day of the test, all surviving rats in each group were dissected and observed, and for administration sites and gross dissection, abnormal organs and tissues which were observed and found to be potentially related to test samples were photographed and recorded. (3) Disposal of dying animals: status of rats and observation time were recorded, and their weights were measured. (4) Disposal of dead animals: the time of death or when a rat was found dead were recorded. The rat was measured for weight before quickly dissected for gross observation and speculated for a cause of death.

| Compound | inhibition of LPS-induced IL-6 secretion of RAW264.7 cells [1] | effect on proliferation activity of mouse macrophages RAW264.7 ([2]; 30 μM) | inhibition of PGE2 secreted by RAW264.7 induced by LPS [3] | inhibition of protein expression of IBD-related COX2 [4] | further results |
| --- | --- | --- | --- | --- | --- |
| 5-n-propoxy myricanol [compound B] | very strong effects of inhibiting | no significant effects | significant effect of inhibiting PGE2; also recorded: strong ability to inhibit | can inhibit | – |
| COc1c2cc(c(OC(C)=O)c1OC)CCCCC(O)CCc1ccc(OC(C)=O)c-2c1 (centres unmarked) [compound A, 5,17-diacetoxy myricanol] | very strong effects of inhibiting | – | significant effect of inhibiting PGE2; also recorded: strong ability to inhibit | can inhibit | Test Endpoint (toxic side effects) ([5]; 100 mg/kg): No obvious toxic; Test Endpoint (toxic side effects) ([5]; 300 mg/kg): No obvious toxic; Test Endpoint (toxic side effects) ([5]; 1000 mg/kg): No obvious toxic; effect on proliferation activity of mouse macrophages RAW264.7 ([2]; 40 μM): no significant effects |
| COc1c2cc(c(OCc3ccccc3)c1OC)CCCCC(O)CCc1ccc(O)c-2c1 (centres unmarked) [compound C, 5-benzyloxy myricanol] | – | no significant effects | – | – | – |
| C=CCOc1ccc2cc1-c1cc(c(OCC=C)c(OC)c1OC)CCCCC(O)CC2 (centres unmarked) [compound D, 5,17-diallyloxy myricanol] | – | no significant effects | – | – | – |
| C=CCOc1c2cc(c(OC)c1OC)-c1cc(ccc1O)CCC(O)CCCC2 (centres unmarked) [compound E, 5-allyloxy myricanol] | – | no significant effects | – | – | – |
| C=CCOc1ccc2cc1-c1cc(c(OCC=C)c(OC)c1OC)CCCCC(=O)CC2 [compound F, 5,17-allyloxy myricanone] | – | – | – | – | effect on proliferation activity of mouse macrophages RAW264.7 ([2]; 80 μM): no significant effects |
| COc1c2cc(c(OC(C)=O)c1OC)CCCCC(O)CCc1ccc(O)c-2c1 (centres unmarked) [compound G, 5-acetoxy myricanol] | very strong effects of inhibiting | – | significant effect of inhibiting PGE2; also recorded: strong ability to inhibit | can inhibit | Test Endpoint (toxic side effects) ([5]; 100 mg/kg): No obvious toxic; Test Endpoint (toxic side effects) ([5]; 300 mg/kg): No obvious toxic; Test Endpoint (toxic side effects) ([5]; 1000 mg/kg): No obvious toxic; effect on proliferation activity of mouse macrophages RAW264.7 ([2]; 40 μM): no significant effects; COX2 protein expression inhibition compared with myricanol [4]: better inhabitation effects than myricanol |
| COc1c2cc(c(O)c1OC)CCCC[C@@H](O)CCc1ccc(O)c-2c1 [myricanol, reference compound] | – | – | strong ability to inhibit | can inhibit | PGE2 ([3]; LPS + 20 μM, LPS alone 1154.90 ± 84.20, control −407.37 ± 57.67): 904.98 ± 18.02 pg/mL |
